Assay results published in patent publication US8163768B2, “1,4-dihydropyridine-fused heterocycles, process for preparing the same, use and compositions containing them” (Aventis Pharma S.A.., priority 2005, dated 2012).
Counter-ions that a name gives are not always drawn.

What was measured:
Aurora2 (Aurora-A) = molecular target: T1, Aurora2 (Aurora-A) (Homo sapiens, UniProt O14965); assay: Aurora 2 (Aurora A) kinase radioactivity scintillation assay using nickel chelate Flash plates; assay type: biochemical; conditions: 10 nM Aurora-A, 500 nM NuMA substrate, 1 μM ATP with [33P] ATP, 10 mM MgCl2, 30 minutes, 37° C.
T1 construct: Aurora-A: the full length recombinant protein including an N-terminal poly-histidine tail has been expressed in E. coli; poly-histidine (N); made in house; host or cells: E. coli
T1 sequence (O14965 1-403): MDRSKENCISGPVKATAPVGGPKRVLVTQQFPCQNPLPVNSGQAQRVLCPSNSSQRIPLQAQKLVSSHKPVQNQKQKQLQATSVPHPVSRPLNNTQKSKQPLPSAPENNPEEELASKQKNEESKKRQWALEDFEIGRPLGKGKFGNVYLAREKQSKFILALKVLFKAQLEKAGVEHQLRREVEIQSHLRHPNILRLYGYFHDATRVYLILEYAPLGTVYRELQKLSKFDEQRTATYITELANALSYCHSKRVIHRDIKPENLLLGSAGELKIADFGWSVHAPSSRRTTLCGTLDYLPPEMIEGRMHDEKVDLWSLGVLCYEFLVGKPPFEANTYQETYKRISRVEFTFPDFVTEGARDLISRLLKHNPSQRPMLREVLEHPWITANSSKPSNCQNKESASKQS
Method in brief: (§1)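 10 nM Aurora-B or Aurora-A with 500 nM NuMA-His substrate, 1 μM ATP plus [³³P]ATP, in 50 mM NaCl, 1 mM DTT and 5 mM (B) or 10 mM (A) MgCl2, 30 min at 37° C on nickel-chelate plates. Incorporated ³³P counted after washing, background-subtracted; IC50 fitted from % inhibition versus concentration.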

Aurora1 (Aurora-B) = molecular target: T2, Aurora1 (Aurora-B) (Homo sapiens, UniProt Q96GD4); assay: Aurora 1 (Aurora B) kinase radioactivity scintillation assay using nickel chelate Flash plates; assay type: biochemical; conditions: 10 nM Aurora-B (co expressed with C3 fragment of INCEP), 500 nM NuMA substrate, 1 μM ATP with [33P] ATP, 5 mM MgCl2, 30 minutes, 37° C.
T2 construct: Aurora-B: the full length protein (His tagged in N-terminal) has been co expressed in SF9 cells; poly-histidine (N); made in house; host or cells: SF9 cells
T2 sequence (Q96GD4 whole entry, species assumed, the tested form may be a part): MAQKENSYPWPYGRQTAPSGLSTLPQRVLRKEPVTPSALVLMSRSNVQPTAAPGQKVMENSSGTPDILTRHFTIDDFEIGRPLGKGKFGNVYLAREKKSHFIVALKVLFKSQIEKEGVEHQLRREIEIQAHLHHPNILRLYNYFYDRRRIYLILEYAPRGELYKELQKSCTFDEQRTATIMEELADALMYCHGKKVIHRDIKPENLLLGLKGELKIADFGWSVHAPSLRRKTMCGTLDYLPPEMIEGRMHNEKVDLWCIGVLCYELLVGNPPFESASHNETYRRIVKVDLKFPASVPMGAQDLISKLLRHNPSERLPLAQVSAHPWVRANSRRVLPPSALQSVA
T2 sequence (Q9NQS7 821-918 partner limits assumed, species assumed): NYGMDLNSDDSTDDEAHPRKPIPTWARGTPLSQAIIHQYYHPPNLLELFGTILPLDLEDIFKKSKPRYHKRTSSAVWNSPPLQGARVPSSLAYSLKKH
Method in brief: as §1

SMILES | IC50 (Aurora2 (Aurora-A)) | IC50 (Aurora1 (Aurora-B)) | melting point
CCOC(=O)c1[nH]cc2c1NC1=C(C(=O)CCC1)C2c1ccc(Sc2nc3cc(OC)ccc3[nH]2)o1 (centres unmarked) [Example 110, 9-[5-(5-Methoxy-1H-benzimidazol-2-ylsulfanyl)-furan-2-yl]-8-oxo-4,5,6,7,8,9-hexahydro-2H-pyrrolo[3,4-b]quinoline-3-carboxylic acid ethyl ester] | 21 nM | 8 nM | 140 °C
CCOC(=O)c1[nH]cc2c1NC1=C(C(=O)CNC1)C2c1ccc(Sc2nc3cc(OC)ccc3[nH]2)o1 (centres unmarked) [Example 111, 9-[5-(6-Methoxy-1H-benzimidazol-2-ylsulfanyl)-furan-2-yl]-8-oxo-4,5,6,7,8,9-hexahydro-2H-pyrrolo[3,4-b][1,7]naphthyridine-3-carboxylic acid ethyl ester] | 1250 nM | 501 nM | 248 °C
CCOC(=O)c1[nH]cc2c1NC1=C(C(=O)CCC1)C2c1ccc(Sc2nc3cccnc3[nH]2)o1 (centres unmarked) [Example 112, 9-[5-(3H-Imidazo[4,5-b]pyridin-2-ylsulfanyl)-furan-2-yl]-8-oxo-4,5,6,7,8,9-hexahydro-2H-pyrrolo[3,4-b]quinoline-3-carboxylic acid ethyl ester] | – | 12 nM | 190 to 202 °C
CCOC(=O)c1[nH]cc2c1NC1=C(C(=O)CNC1)C2c1ccc(Sc2nc3cc(F)c(F)cc3[nH]2)o1 (centres unmarked) [Example 115, 9-[5-(5,6-Difluoro-1H-benzimidazol-2-ylsulfanyl)-furan-2-yl]-8-oxo-4,5,6,7,8,9-hexahydro-2H-pyrrolo[3,4-b][1,7]naphthyridine-3-carboxylic acid ethyl ester] | 48 nM | 8 nM | 190 to 196 °C
CCOC(=O)c1[nH]cc2c1NC1=C(C(=O)CCC1)C2c1ccc(Sc2nc3cc(Cl)c(Cl)cc3[nH]2)o1 (centres unmarked) [Example 116, 9-[5-(5,6-Dichloro-1H-benzimidazol-2-ylsulfanyl)-furan-2-yl]-8-oxo-4,5,6,7,8,9-hexahydro-2H-pyrrolo[3,4-b]quinoline-3-carboxylic acid ethyl ester] | 54 nM | 6 nM | 180 °C
CCOC(=O)c1[nH]cc2c1NC1=C(C(=O)CCC1)C2c1cnc(Sc2nc3ccccc3[nH]2)s1 (centres unmarked) [Example 118, 9-[2-(1H-Benzimidazol-2-ylsulfanyl)-thiazol-5-yl]-8-oxo-4,5,6,7,8,9-hexahydro-2H-pyrrolo[3,4-b]quinoline-3-carboxylic acid ethyl ester] | – | – | 194 °C
CCOC(=O)c1[nH]cc2c1NC1=C(C(=O)CNC1)C2c1ccc(Sc2nc3cc(OC(F)(F)F)ccc3[nH]2)o1 (centres unmarked) [Example 151, 8-Oxo-9-[5-(5-trifluoromethoxy-1H-benzimidazol-2-ylsulfanyl)-furan-2-yl]-4,5,6,7,8,9-hexahydro-2H-pyrrolo[3,4-b][1,7]naphthyridine-3-carboxylic acid ethyl ester hydrochloride] | 60 nM | 14 nM | –
